Test results as given in patent US9493402B2, “Omega-aminoalkylamides of R-2-aryl-propionic acids as inhibitors of the chemotaxis of polymorphonucleate and mononucleate cells” (Dompé S.p.A., priority 2001, dated 2016).
Structures can show the parent of a compound that is named as a salt.

Legend:
[1] = system: human circulating polymorphonucleates (PMNs), C5a induced chemotaxis; assay: C5a-induced chemotaxis of human PMNs (microchamber assay); format: cell-based; conditions: compound 10^-5 M (so in the source), C5a 1 ng/mL
Method: (§1) The compounds of the invention of formula (I) were evaluated “in vitro” for their ability to inhibit chemotaxis of polymorphonucleate leukocytes (hereinafter referred to as PMNs) and monocytes, induced by the fractions of the complement C5a and C5a-desArg. For this purpose, to isolate the PMNs from heparinized human blood, taken from healthy adult volunteers, mononucleates were removed by means of sedimentation on dextrane (according to the procedure disclosed by W. J. Ming et al., J. Immunol., 138, 1469, 1987) and red blood cells by a hypotonic solution. The cell vitality was calculated by exclusion with Trypan blue, whilst the ratio of PMNs was estimated on the cytocentrifugate after staining with Diff Quick.
The fractions hr-C5a and hrC5a-desArg (Sigma) were used as stimulating agents in chemotaxis experiments, obtaining practically identical results.
Lyophilized C5a was dissolved in a volume of HBSS containing 0.2% BSA so as to obtain a stock solution having a concentration of 10^−5 M, to be diluted in HBSS to a concentration of 10^−9 M, for the chemotaxis assays.
(§2) In the chemotaxis experiments, the PMNs were incubated with the compounds of the invention of formula (I) for 15′ at 37° C. in an atmosphere containing 5% CO2.
(§3) The chemotactic activity of the C5a was evaluated on human circulating polymorphonucleates (PMNs) resuspended in HBSS at a concentration of 1.5×10^6 PMNs per ml.
(§4) During the chemotaxis assay (according to W. Falket et al., J. Immunol. Methods, 33, 239, 1980) PVP-free filters with a porosity of 5 mcm and microchambers suitable for carrying out the test were used.
[…] The wells in the lower part contain the solution of C5a or the simple carrier, those in the upper part contain the suspension in PMNs.
Inhibition of C5a-induced chemotactic activity by the individual compounds of the invention of formula (I) was evaluated by incubating the microchamber for the chemotaxis for 60 min at 37° C. in an atmosphere containing 5% CO2.

[2] = system: human PMNs (rhIL-8 induced chemotaxis); assay: IL-8-induced chemotaxis of human PMNs (microchamber assay); format: cell-based; conditions: IL-8 10 ng/mL; for inhibition at 0.01 µM: compound 10^-8 M; for inhibition at 1 µM: compound c = 10^-6 M
Method: as §1, §2, §3, §4
The compounds of the invention in formula (I) were evaluated at a concentration ranging between 10^−6 and 10^−10 M; for this purpose they were added, at the same concentration, both to the lower pores and the upper pores of the microchamber. The wells in the lower part contain the solution of C5a or the simple carrier, those in the upper part contain the suspension in PMNs.
The compounds of the invention were also evaluated in their ability to inhibit IL-8-induced chemotaxis of human PMNs. For this purpose, recombinant human interleukin-8 (rhIL-8, Pepro Tech) was used: the lyophilized protein was dissolved in HBSS (Hank's balanced salts solution) at the concentration of 100 mcg/mL and then diluted down to a concentration of 10 ng/mL in the chemotaxis experiments. R(−)-2-[(4′-isobutyl)phenyl]-propionyl methansulfonamide (ED50=10^−9 M) described in WO 00/24710, was used as reference standard.

[3] = system: human PMNs (rhIL-8 induced chemotaxis); conditions: reference standard; rhIL-8 10 ng/mL; read-out: ED50 (inhibition of IL-8-induced chemotaxis of human PMNs); cited from earlier work

Compound | inhibition at 10 µM ([1]; 1 h) | inhibition at 0.01 µM [2] | melting point | inhibition at 10 µM [1] | inhibition at 1 µM [2] | EC50 [3]
CC(C)Cc1ccc([C@@H](C)C(=O)NC2CCN(C)CC2)cc1 [(R) 2-(4-isobutylphenyl)-N-(1-methyl-piperidin-4-yl)propionamide hydrochloride] | 48 ± 8% | 4 ± 9% |  |  |  | 
C[C@@H](C(=O)NCCCN(C)C)c1cccc(C(=O)c2ccccc2)c1 [(R)-2-[(3-benzoyl)phenyl]-N-(3-dimethylaminopropyl)propionamide] | 56 ± 2% | 53 ± 8% |  |  |  | 
CC(C)Cc1ccc([C@@H](C)C(=O)NCCCN2CCN(C)CC2)cc1.Cl.Cl |  |  | 216 to 220 °C |  |  | 
CC(C)Cc1ccc([C@@H](C)C(=O)N[C@@H]2C[C@H]3CC[C@@H](C2)N3C)cc1 [(R) 2-(4-isobutylphenyl)-N-(exo-8-methyl-8-aza-bicyclo[3.2.1]oct-3-yl)propionamide hydrochloride] | 57 ± 6% | 3 ± 8% |  |  |  | 
CC(C)Cc1ccc([C@@H](C)C(=O)NCCCN)cc1 [(R) 2-(4-isobutylphenyl)-N-(3-aminopropyl)propionamide hydrochloride] | 84 ± 8% | 2 ± 7% |  |  |  | 
CC(C)Cc1ccc([C@@H](C)C(=O)NCCN(C)C)cc1.Cl [(R)-2-(4-isobutylphenyl)-N-(2-dimethylaminoethyl)propionamide.HCl] | 62 ± 12% | 56 ± 13% | 90 to 93 °C |  |  | 
CC(C)c1cccc([C@@H](C)C(=O)NCCCN(C)C)c1 [(R) 2-(3-isopropylphenyl)-N-3-(dimethylaminopropyl)propionamide] | 42 ± 18% | 5 ± 6% |  | 42 ± 18% | 48 ± 2% | 
CC(C)Cc1ccc([C@@H](C)C(=O)NCCCN(C)C)cc1.Cl [(R) 2-(4-isobutylphenyl)-N-(3-dimethylaminopropyl)propionamide hydrochloride] | 65 ± 14% | 51 ± 15% | 95 to 98 °C |  |  | 
CC(C)Cc1ccc([C@@H](C)C(=O)NCCCN2CCCCC2)cc1.Cl [(R) 2-(4-isobutylphenyl)-N-[3-(1-piperidinyl)propyl]propionamide hydrochloride] | 76 ± 6% | 46 ± 8% | 76 to 80 °C |  |  | 
CC(C)Cc1ccc([C@@H](C)C(=O)NC(CCCCN)C(=O)O)cc1 (stereo partly drawn) [(R),(S′) 2-(4′-isobutylphenyl)-N-(1-carboxy-5-aminopentyl)propionamide hydro-chloride] | 49% | 5% |  |  |  | 
CC(C)Cc1ccc([C@@H](C)C(=O)NCCCCN(C)C)cc1.Cl [(R) 2-(4-isobutylphenyl)-N-(4-dimethylaminobutyl)propionamide. HCl] | 55 ± 8% | 34 ± 6% | 95 to 97 °C |  |  | 
C[C@@H](C(=O)NCCCN(C)C)c1ccccc1Nc1c(Cl)cccc1Cl [(R)-2-[2-(2,6-dichlorophenylamino)-phenyl]-N-3-(dimethylaminopropyl) propionamide] | 41 ± 2% | 1 ± 13% |  | 41 ± 2% | 58 ± 6% | 
CC(C)Cc1ccc([C@@H](C)C(=O)N[C@@H](CCCN2CCCCC2)C(=O)O)cc1 [sodium salt] | 33 ± 15% | 56 ± 9% |  |  |  | 
CC(C)Cc1ccc([C@@H](C)C(=O)NS(C)(=O)=O)cc1 [R(−)-2-[(4′-isobutyl)phenyl]-propionyl methansulfonamide] |  |  |  |  |  | 1 nM
CC(C)Cc1ccc([C@@H](C)C(=O)NCCCN2CCOCC2)cc1.Cl [(R) 2-(4-isobutylphenyl)-N-3-(N-morpholinylpropyl)propionamide.HCl] | 24 ± 11% | 55 ± 12% | 90 to 93 °C |  |  | 
CC(C)Cc1ccc([C@@H](C)C(=O)NCC(=O)NCCN(C)C)cc1 [R-2-[(4′-isobutylphenyl]-N-[2-(dimethylaminoethyl)aminocarbonylmethyl]-propionamide hydrochloride] | 68 ± 4% | 31 ± 6% |  |  |  | 
